Assay results: PMC6272399, “Anti-Proliferative Effect and Induction of Apoptosis in Androgen-Independent Human Prostate Cancer Cells by 1,5-Bis(2-hydroxyphenyl)-1,4-pentadiene-3-one” (Molecules, 2015)

What was measured:
DU 145 cells [1] = test: MTT cytotoxicity (cell viability) assay, DU 145; format: cell-based, human
Protocol: Cell viability was determined by the MTT [3-(4,5-dimethylthiazol-2-yl)-2,5-diphenyltetrazolium bromide] assay, as previously described by Mosmann with modifications. Briefly, cells were detached from the tissue culture flask and pelleted by centrifugation at 1000 rpm for 5 min. Then, the density of the viable cells was counted using a haemocytometer. Cells were then plated in a 96-well flat bottom micro-titer plate (Nunc) at a concentration of 10^4 cells/mL and incubated in a 5% CO2 incubator at 37 °C overnight to allow the cells to adhere to the bottom of the wells. After 24 h, the media was aspirated off and replaced with fresh media containing sample compounds (curcumin and curcumin analogues) of seven different concentrations ranging from 1.56 µM–100 µM and incubated at 37 °C, 5% CO2 for 72 h. Separately, the sample compounds were prepared in a stock solution of 50 mM in 100% dimethyl sulfoxide (DMSO, Molecular Biology Grade, Sigma-Aldrich, St. Louis, MO, USA) and diluted in the culture media to a working concentration of 200 µM. Curcumin, the parent compound which was used as the positive control was also prepared in the similar manner. A two-fold serial dilution was done for each sample in triplicates down the columns of the plate, yielding a final volume and concentration of 100 µL in 0.2% DMSO in each wells. Following treatment, 50 µL MTT solutions (0.5 mg/mL in PBS) was added to each well and incubated for another 4 h at 37 °C in a humidified 5% CO2 incubator. The supernatant was replaced with 100 µL of DMSO and the optical density (OD) was measured at 570/650 nm using a micro-plate ELISA reader (Bio-Rad Laboratories, Hercules, CA, USA). The percentage of viable cells was calculated based on the ratio of the corrected absorbance of sample-treated cells to the corrected absorbance of the control (0.2% DMSO-treated cells) multiplied by 100. The percentage of cell viability was determined as follows: % Cell viability= OD of treated cells /OD of control ×100
For each compound tested, the EC50 value was generated from the log dose-response curves for each cell line using the Graphpad Prism version 5.04 for Windows (Graphpad Software, La Jolla, CA, USA). […] Cytotoxicity of each tested compound is expressed as the EC50 value. Based on the EC50 values, selectivity index (SX) value was also determined. Selectivity index is a special parameter applied as a selectivity indicator of tested compounds towards cancer cells. The SX represents the ratio of EC50 value obtained in toxicity testing using the normal cell lines to the EC50 values of the toxicity testing of the cancer cells, and then multiplied by 100. All the compounds were assessed for their potential toxicity against normal, non-cancerous cells. […] The SX values were calculated using the following equation: SX = EC50 (normal cells)/EC50 (cancer cells) × 100

PC-3 cells [2] = test: AO/EB double staining, morphology and quantification of apoptotic and necrotic cells, PC-3; format: cell-based, human
Protocol: Cell morphological changes were assessed by the differential staining DNA-intercalate fluorescent dyes acridine orange (AO) and ethidium bromide (EB). Cells (3 × 10^5) were seeded in a 6-well tissue culture plates, treated with MS17 at various concentrations (EC50, 2 × EC50, 3 × EC50) and incubated for 12, 24, 48 and 72 h time intervals. After incubation, cell pellets were suspended in 50 µL of cold PBS. To each samples, 10 µL of cell suspension was added with 1 µL of AO/EB dye mixture (1 part of 100 µg/mL of AO in PBS; 1 part of 100 µg/mL of EB in PBS) prior to microscopic examination. Ten microliter of the cell suspension mixed with the dye mixture was placed on a glass microscopic slide covered with a cover slip and was observed and photographed with a fluorescence microscope using a fluorescein filter (BX41, Olympus, Center Valley, PA, USA). A minimum of 200 total targeted cells were counted per sample and the percentage of cells from each population (viable, early apoptosis, late apoptosis and necrosis) was calculated. The experiment was conducted in triplicates. Untreated cells containing DMSO alone were used as negative control.

prostate cancer cells = test system: prostate cancer cells; design: method as in PMID 21796654; settings: compound labeled ca27; cited from earlier work
PC-3 cells [3] = test: Free nucleosome detection (Cell Death Detection ELISA), PC-3; format: cell-based, human; settings: PC-3, 9.0 and 13.5 µM, 24, 48 and 72 h
Protocol: (§1) To confirm the presence of histone-bound DNA fragments (free nucleosomes) in the prostate cancer cells after the treatment of MS17, Cell Death Detection ELISA^PLUS kit (Roche Diagnostics) was used according to the manufacturer’s protocol. Cells were plated on a bottom flat tissue culture plates at a concentration of 10^5 cells per well and incubated for 24 h to allow the cells to adhere. After overnight incubation, MS17 at various concentrations (EC50, 2 × EC50, 3 × EC50) were added to a final volume of 100 µL per well and further incubated for 24, 48 and 72 h. The plate was centrifuged at 600 rpm at 4 °C for 10 min. The cell pellet containing the apoptotic bodies was resuspended in lysis buffer and incubated for 30 min at room temperature. […] The amount of nucleosomes retained by the POD in the immunocomplex, corresponding to the extent of apoptosis and necrosis, was determined with 2,2'-azinobis-3-ethyl-benzothiazoline-6-sulfonic acid (ABTS) as substrate using a micro-plate ELISA reader at a wavelength of 405/490 nm. The amount of enrichment of mono- and oligonucleosomes released into the cytoplasm was calculated using the following formula: Enrichment factor= Absorbance of sample/Absorbance of control

DU 145 cells [4] = test: Free nucleosome detection (Cell Death Detection ELISA), DU 145; format: cell-based, human; settings: DU 145, 8.4 µM compared with 4.2 and 12.6 µM, all time points
Protocol: as §1

O=C(C=Cc1ccccc1O)C=Cc1ccccc1O [MS17, 1,5-bis(2-hydroxyphenyl)-1,4-pentadiene-3-one]
dose from which decrease in cell viability is significant (DU 145 cells [1]; DU 145, MTT, vs untreated): 6.3 µM | EC50 (DU 145 cells [1]; Homo sapiens, DU-145, MTT, 72 h treatment, mean ± SD, three experiments, read-out: EC50 Values (µM) of Compounds on Cell Lines DU 145): 4.1 ± 0.8 µM | Selective index (SX) WI-38 vs DU 145 (DU 145 cells [1]; SX = EC50 (WI-38)/EC50 (DU 145) × 100): 126.3 | Selective index (SX) WRL68 vs DU 145 (DU 145 cells [1]; SX = EC50 (WRL68)/EC50 (DU 145) × 100): 134.3 | morphological observation of cell nuclei (AO/EB) (PC-3 cells [2]; PC-3, MS17-treated vs untreated): typical signs of apoptosis such as cell shrinkage, formation of apoptotic bodies and membrane blebbing | necrotic cells (PC-3 cells [2]; PC-3, all three doses, 12 and 24 h): less than 5% | growth inhibition of prostate cancer cells (prostate cancer cells): able to inhibit the growth of prostate cancer cells at a concentration below that typically used for curcumin | nucleosomal fragments (enrichment factor) (PC-3 cells [3]): significant increase in nucleosomal fragments | nucleosomal fragments (enrichment factor) (DU 145 cells [4]): significant increase in nucleosomal fragments
